# In US20150329918A1, “JAGGED1 AS A MARKER AND THERAPEUTIC TARGET FOR BREAST CANCER BONE METASTASIS” (The Trustees of Princeton University, priority 2011, published 2015):
# Tests used:
# [1] = tested on: SCP28 tumor cells cocultured with MC3T3-E1 osteoblasts; test: Osteoblast coculture tumor cell quantification by luciferase assay; assay type: cell-based, human; details: cocultured with MC3T3-E1; hIL-6 10 or 100 ng/ml; FIG. 14B
# Experimental: MC3T3-E1 cells were seeded at 2×10^5 cells/well in 12-well plates. After confluence was achieved, luciferase/GFP-labeled (GFP+) control and JAG1 OE cells were added at 1×10^4 cells/well in triplicate and treated with DMSO or 1 μM MRK-003. Media supplemented with appropriate drugs were changed every 2 days. After 6 days the coculture was subjected to a luciferase assay to selectively quantify the number of tumor cells. These values were normalized against luciferase quantification of 12-well plates seeded with tumor cells alone.
# For transfection experiments, MC3T3-E1 osteoblasts were seeded at 2×10^5 cells/well in 12-well plates and grown to 95% confluence. […] Following 6 days, the coculture was lysed and subjected to a luciferase assay to selectively quantify the number of tumor cells. For gene expression analysis, RNA from cocultures was collected in RLT lysis buffer, extracted with RNeasy mini kit (Qiagen), and subjected to quantitative RT-PCR.
# (§1) For in vitro experiments, GSI-IX (Calbiochem) and TGFβ Receptor 1 (EMD Biosciences 616451) were dissolved in DMSO. […] RNA and protein were collected and analyzed for JAGGED1 expression as described above. […]
# [2] = tested on: pre-osteoclast Raw 264.7 cells; test: Osteoclastogenesis coculture assay (TRAP staining); assay type: cell-based, mouse; details: 15-fold increase by JAG1 OE relative to controls; 1 μM MRK-003; FIG. 15A
# Experimental: After seeding 5×10^4 control or JAG1 OE tumor cells/well into 12-well plates, murine pre-osteoclast Raw 264.7 (2×10^5 cells/well) or MOCP5 (5×10^5 cells/well) cells in media containing 30 ng/ml RANKL and DMSO or 1 μM MRK-003 were added the next day. Media were changed every 2 days. TRAP staining was performed on day 6 using a leukocyte acid phosphatase kit (Sigma). TRAP^+-multinucleated cells were scored as mature osteoclasts. The number of nuclei per osteoclast was quantified using TRAP-stained images. Mouse specific qRT-PCR primers were used to selectively quantify Raw264.7 osteoclast gene expression levels after 6 days of coculture (see Table 1 below).
# For primary osteoclast coculture assays, bone marrow cells were flushed out from femora and tibiae of 4- to 6-week-old wild-type FVB mice and plated in basal culture medium overnight. The next day, nonadherent cells were added at 1×10^6/well to 12-well plates that were previously seeded with either control or JAG1 OE tumor cells supplemented with 50 ng/ml RANKL and 50 ng/ml M-CSF. Medium was changed every 3 days. TRAP staining and scoring were performed on days 10-12.
# [3] = tested on: JAGGED1; test: JAGGED1 mRNA and protein after TGFβ treatment of breast cancer cells in vitro; assay type: cell-based, human; details: several breast cancer cell lines; FIG. 5A
# Experimental: SDS lysis buffer (0.05 mM Tris-HCl, 50 mM BME, 2% SDS, 0.1% Bromophenol blue, 10% glycerol) was used to collect protein from cultured cells. Heat denatured protein was then equally loaded, separated on an SDS-page gel, transferred onto a pure nitrocellulose membrane (BioRad), and blocked with either 5% milk or 5% BSA. Primary antibodies for immunoblotting included: goat anti-JAGGED1 (1:1000 dilution, sc-6011, Santa Cruz), rabbit anti-phosho-SMAD2 (1:1000 dilution, Ser465/467, Cell Signaling), and mouse anti-β-actin (1:4000 dilution, Abcam) for loading control. Membranes were incubated with horseradish peroxidase (HRP)-conjugated anti-mouse secondary antibody (1:2000 dilution, GE Healthcare) or anti-rabbit secondary antibody (1:2000 dilution, GE Healthcare) for 1 h and chemiluminescence signals were detected by ECL substrate (GE Healthcare).
# as §1
# RNA from in vitro cultured cells or flow cytometry-separated cells was collected in RLT lysis buffer and extracted with RNeasy mini kit (Qiagen). […] Quantitative RT-PCR was performed using Power Syber Green PCR Master Mix (Applied Biosystems) with the ABI Prism 7900HT thermocycler (Applied Biosystems) according to the manufacturer's protocol. […]
# [4] = tested on: SCP2 and 1833 tumor cells; test: Proliferation of JAG1 KD tumor cells in culture or as mammary tumors; set-up: species or system human
# Experimental: (§2) For bone metastsis studies, 10^5 tumor cells were injected into the left cardiac ventricle of anesthetized female athymic Ncr-nu/nu or BALB/c mice. Development of metastases was monitored by BLI. Bioluminescence images were acquired with a Xenogen IVIS 200 Imaging System. Analysis was performed with Living Image software by measuring photon flux in the hindlimbs of mice. Data were normalized to the signal on day 7. Bone metastasis-free survival curves represent the time point at which each mouse developed bone metastasis by threshold BLI signals in the hindlimbs. For the orthotopic xenograft model, mammary fat pad injections and primary tumor size measurements were performed following the procedure described previously (Minn et al., 2005, which is incorporated herein by reference as if fully set forth).
# After 48 hours viruses were collected, filtered and used to infect target cells in the presence of 5 μg/ml polybrene. The infected cells were selected with 1 μg/ml puromycin. For stable overexpression in the SCP28 human breast cancer cell line, human JAGGED1 cDNA was PCR amplified using the primer pair: 5′-[…]-3′ (Sense) [SEQ ID NO: 2] and 5′-[…]-3′ (Antisense) [SEQ ID NO: 3] and cloned into the retroviral expression vector pMSCVpuro using XhoI and EcoRI restriction sites (underlined=restriction sites, bold=human JAG1-specific sequences). […]
# [5] = tested on: SCP2 and 1833 bone metastasis; test: Bone metastasis xenograft with JAG1 knockdown SCP2 and 1833 cells; assay type: in vivo, mouse
# Experimental: as §2
# After 48 hours viruses were collected, filtered and used to infect target cells in the presence of 5 μg/ml polybrene. The infected cells were selected with 1 μg/ml puromycin. […]
# Hindlimb bones were excised from mice at the end point of each experiment, immediately after the last BLI time point. […] For quantitative analysis of lesion area, a 5× objective was used to focus on the tumor region of interest and images were acquired using the AxioCamICc3 camera set to an exposure of 100 ms. Lesions that were larger than the field of view were quantified by acquiring multiple images to encompass the entire lesion. The “spline” function of the AxioVision software was used to outline the region of interest and subsequently quantify the lesion area. Osteoclast number was assessed as multinucleated TRAP^+ cells along the tumor-bone interface and reported as number/mm of interface (Yin et al., 2003, which is incorporated herein by reference as if fully set forth). […]
molecule,measurement,setting,value
rIL-6: Recombinant human IL-6 (R&D systems),proliferative ability of control tumor cells,[1],significantly enhanced
rJAG1: Recombinant rat JAGGED1/Fc chimera (R&D systems),TRAP+ osteoclasts in JAG1 OE cocultures,[2],confirmed
TGFβ: Recombinant human TGFβ1 (R&D systems),Jagged1 expression upon TGFβ stimulation,[3],potently upregulated
C[C@H](NC(=O)Cc1cc(F)cc(F)c1)C(=O)N[C@H](C(=O)OC(C)(C)C)c1ccccc1 [GSI IX],TRAP+ osteoclasts in JAG1 OE cocultures,[2],confirmed
"JAG1 KD: shRNA targeting CGTACAAGTAGTTCTGTAT of JAG1 (SEQ ID NO: 1; same as sense strand SEQ ID NO: 78, shRNA SEQ ID NO: 80) (nucleic acid) GATCTCCCGTACAAGTAGTTCTGTATTTCAAGAGAATACAGAACTACTTGTACGTTTTTGGAAAAGCTTTTCCAAAAACGTACAAGTAGTTCTGTATTCTCTTGAAATACAGAACTACTTGTACGGGA",ability of tumor cells to proliferate in culture or as mammary tumors in mice,[4],did not alter
same,onset of bone metastasis,[5]; SCP2 and 1833 with JAG1 shRNA,delayed
same,survival of mice,[5]; SCP2 and 1833 with JAG1 shRNA,significantly extended
same,decrease in the number of TRAP+ osteoclasts along the bone tumor interface,[5]; histological analysis,2 fold
